Assay results from US20260070945A1, “MACROCYCLIC IMMUNOMODULATORS” (Bristol-Myers Squibb Company, priority 2022, published 2026).
*1 amine or outer side, *2 acyl side, *3 side chain or, on linkers, in order; H or OH if unused. Where a SMILES comes first, the peptide text is derived from it. Bridges are numbered along the chain shown (N, C = ends). [ ]: non-standard residue; d: D form. The star is where a group is joined. X5 = O=C([C@H](Cc1ccc(-c2cc(F)c(F)c(F)c2)cc1)N[*:1])[*:2]; Phe(4-(4-F-Ph)) = N[C@@H](Cc1ccc(-c2ccc(F)cc2)cc1)C(=O)O; Phe(3-CF3) = N[C@@H](Cc1cccc(C(F)(F)F)c1)C(=O)O; Phe(4-COOH) = N[C@@H](Cc1ccc(C(=O)O)cc1)C(=O)O; Bip = N[C@@H](Cc1ccc(-c2ccccc2)cc1)C(=O)O; Phe(3-Cl) = N[C@@H](Cc1cccc(Cl)c1)C(=O)O; Phe(3-Me) = Cc1cccc(C[C@H](N)C(=O)O)c1; X6 = O=C(Cc1ccc(CN[*:1])cc1)[*:2]; Cha = N[C@@H](CC1CCCCC1)C(=O)O; Carboxymethyl = O=C(O)C*; NMeA = CN[C@@H](C)C(=O)O; Orn = NCCC[C@H](N)C(=O)O; Pra = C#CC[C@H](N)C(=O)O; Aun = NCCCCCCCCCCC(=O)O; Dab = NCC[C@H](N)C(=O)O; AEEA = NCCOCCOCC(=O)O; Ac3c = NC1(C(=O)O)CC1

Molecular target: T1, PD-1/PD-L1 interaction (PE-labeled human PD-L1-Ig binding to Jurkat cell line over-expressing human PD-1) (Homo sapiens, UniProt Q15116)
T1 construct: expressed in transfected cells; host or cells: Jurkat
T1 sequence (Q15116 25-288): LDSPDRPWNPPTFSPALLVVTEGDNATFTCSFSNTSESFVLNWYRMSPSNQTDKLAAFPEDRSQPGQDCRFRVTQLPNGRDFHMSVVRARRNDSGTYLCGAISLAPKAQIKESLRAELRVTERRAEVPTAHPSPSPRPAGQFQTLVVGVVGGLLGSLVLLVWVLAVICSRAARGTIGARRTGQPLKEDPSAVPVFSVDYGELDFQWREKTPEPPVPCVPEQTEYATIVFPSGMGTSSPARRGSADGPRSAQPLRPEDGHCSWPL
Assay: Jurkat-PD-1 Cell Binding High-Content Screening Assay (CBA)
Conditions: Jurkat-hPD-1 cells, PE-labeled PD-L1-Ig 20 nM final; read-out: Jurkat HPD1 PDL1 IC50
Summary of the method: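 Jurkat-hPD-1 cells (8×10^3/well) in DMEM with 10% fetal calf serum were preincubated with compound for 2 h at 37 °C. PE-labeled PD-L1-Ig was then added at 20 nM final for 1 h. Cells were fixed in paraformaldehyde with Hoechst 33342, washed and imaged by high-content imaging.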

| IC50 [nM] | Compound |
| --- | --- |
| 9.5 | Cc1cccc(C[C@@H]2NC(=O)[C@H](CC(=O)O)NC(=O)[C@H](Cc3ccc(OCC(=O)O)cc3)NC(=O)[C@H]([C@@H](C)O)NC(=O)CSC[C@@H](C(=O)N[C@@H](CCN)C(=O)NCCCCCCCCCCC(=O)O)NC(=O)[C@H]([C@@H](C)O)NC(=O)[C@H](C(C)C)NC(=O)[C@H](CC3CCCCC3)NC(=O)[C@H](CCN)NC(=O)[C@@H](CC(C)C)NC(=O)[C@H](C)N(C)C(=O)[C@H](Cc3ccc(OCC(=O)O)cc3)NC(=O)[C@H](Cc3ccc(-c4ccc(F)cc4)cc3)NC(=O)[C@H](Cc3ccc(C(=O)O)cc3)NC2=O)c1 [Example 1235] ({CH2CO}-TY(Carboxymethyl)D[Phe(3-Me)][Phe(4-COOH)][Phe(4-(4-F-Ph))]Y(Carboxymethyl)[NMeA][dL][Dab][Cha]VTC[Dab][Aun]-OH; thioether N-14) |
| 54.5 | Cc1cccc(C[C@@H]2NC(=O)[C@H](CC(=O)O)NC(=O)[C@H](Cc3ccc(OCC(=O)O)cc3)NC(=O)[C@H]([C@@H](C)O)NC(=O)CSC[C@@H](C(=O)N[C@@H](CCN)C(=O)NCCCCCCCCCCC(=O)O)NC(=O)[C@H]([C@@H](C)O)NC(=O)[C@H](C(C)C)NC(=O)[C@H](CC3CCCCC3)NC(=O)[C@H](CCN)NC(=O)[C@@H](CC(C)C)NC(=O)[C@H](C)N(C)C(=O)[C@H](Cc3ccc(OCC(=O)O)cc3)NC(=O)[C@H](Cc3ccc(-c4cc(F)c(F)c(F)c4)cc3)NC(=O)[C@H](Cc3ccc(C(=O)O)cc3)NC2=O)c1 [Example 1236] ({CH2CO}-TY(Carboxymethyl)D[Phe(3-Me)][Phe(4-COOH)][X5]Y(Carboxymethyl)[NMeA][dL][Dab][Cha]VTC[Dab][Aun]-OH; thioether N-14) |
| 180 | CC(C)C[C@H]1NC(=O)[C@H](C)N(C)C(=O)[C@H](Cc2ccc(OCC(=O)O)cc2)NC(=O)[C@H](Cc2ccc(-c3cc(F)c(F)c(F)c3)cc2)NC(=O)[C@H](Cc2ccc(C(=O)O)cc2)NC(=O)[C@H](Cc2cccc(C(F)(F)F)c2)NC(=O)[C@H](CC(=O)O)NC(=O)[C@H](Cc2ccc(OCC(=O)O)cc2)NC(=O)[C@H]([C@@H](C)O)NC(=O)CSC[C@@H](C(=O)N[C@@H](CCN)C(=O)NCCCCCCCCCCC(=O)O)NC(=O)[C@H]([C@@H](C)O)NC(=O)[C@H](C(C)C)NC(=O)[C@H](CC2CCCCC2)NC(=O)[C@H](CCN)NC1=O [Example 1237] ({CH2CO}-TY(Carboxymethyl)D[Phe(3-CF3)][Phe(4-COOH)][X5]Y(Carboxymethyl)[NMeA][dL][Dab][Cha]VTC[Dab][Aun]-OH; thioether N-14) |
| 14.9 | C#CC[C@H](NC(=O)[C@H](CCN)NC(=O)[C@@H]1CSCC(=O)N[C@@H]([C@@H](C)O)C(=O)N[C@@H](Cc2ccc(OCC(=O)O)cc2)C(=O)N[C@@H](CC(=O)O)C(=O)N[C@@H](Cc2cccc(C(F)(F)F)c2)C(=O)N[C@@H](Cc2ccc(C(=O)O)cc2)C(=O)N[C@@H](Cc2ccc(-c3ccccc3)cc2)C(=O)N[C@@H](Cc2ccc(OCC(=O)O)cc2)C(=O)N(C)[C@@H](C)C(=O)N[C@H](CC(C)C)C(=O)N[C@@H](CCN)C(=O)N[C@@H](CC2CCCCC2)C(=O)N[C@@H](C(C)C)C(=O)N[C@@H]([C@@H](C)O)C(=O)N1)C(=O)NCCCCCCCCCCC(=O)O [Example 1238] ({CH2CO}-TY(Carboxymethyl)D[Phe(3-CF3)][Phe(4-COOH)][Bip]Y(Carboxymethyl)[NMeA][dL][Dab][Cha]VTC[Dab][Pra][Aun]-OH; thioether N-14) |
| 10.5 | C#CC[C@H](NC(=O)[C@H](CCN)NC(=O)[C@@H]1CSCC(=O)N[C@@H]([C@@H](C)O)C(=O)N[C@@H](Cc2ccc(OCC(=O)O)cc2)C(=O)N[C@@H](CC(=O)O)C(=O)N[C@@H](Cc2cccc(Cl)c2)C(=O)N[C@@H](Cc2ccc(C(=O)O)cc2)C(=O)N[C@@H](Cc2ccc(-c3ccccc3)cc2)C(=O)N[C@@H](Cc2ccc(OCC(=O)O)cc2)C(=O)N(C)[C@@H](C)C(=O)N[C@H](CC(C)C)C(=O)N[C@@H](CCN)C(=O)N[C@@H](CC2CCCCC2)C(=O)N[C@@H](C(C)C)C(=O)N[C@@H]([C@@H](C)O)C(=O)N1)C(=O)NCCCCCCCCCCC(=O)O [Example 1239] ({CH2CO}-TY(Carboxymethyl)D[Phe(3-Cl)][Phe(4-COOH)][Bip]Y(Carboxymethyl)[NMeA][dL][Dab][Cha]VTC[Dab][Pra][Aun]-OH; thioether N-14) |
| 20.7 | C#CC[C@H](NC(=O)[C@H](CCN)NC(=O)[C@@H]1CSCC(=O)N[C@@H]([C@@H](C)O)C(=O)N[C@@H](Cc2ccc(OCC(=O)O)cc2)C(=O)N[C@@H](CC(=O)O)C(=O)N[C@@H](Cc2cccc(C)c2)C(=O)N[C@@H](Cc2ccc(C(=O)O)cc2)C(=O)N[C@@H](Cc2ccc(-c3ccccc3)cc2)C(=O)N[C@@H](Cc2ccc(OCC(=O)O)cc2)C(=O)N(C)[C@@H](C)C(=O)N[C@H](CC(C)C)C(=O)N[C@@H](CCN)C(=O)N[C@@H](CC2CCCCC2)C(=O)N[C@@H](C(C)C)C(=O)N[C@@H]([C@@H](C)O)C(=O)N1)C(=O)NCCCCCCCCCCC(=O)O [Example 1240] ({CH2CO}-TY(Carboxymethyl)D[Phe(3-Me)][Phe(4-COOH)][Bip]Y(Carboxymethyl)[NMeA][dL][Dab][Cha]VTC[Dab][Pra][Aun]-OH; thioether N-14) |
| 23.3 | Cc1cccc(C[C@@H]2NC(=O)[C@H](CC(=O)O)NC(=O)[C@H](Cc3ccc(OCC(=O)O)cc3)NC(=O)[C@H]([C@@H](C)O)NC(=O)CSC[C@@H](C(=O)N[C@@H](CCN)C(=O)N[C@@H](Cc3cn(CC(=O)NCCCNC(=O)c4cc(F)c(F)c(F)c4)nn3)C(=O)NCCCCCCCCCCC(=O)O)NC(=O)[C@H]([C@@H](C)O)NC(=O)[C@H](C(C)C)NC(=O)[C@H](CC3CCCCC3)NC(=O)[C@H](CCN)NC(=O)[C@@H](CC(C)C)NC(=O)[C@H](C)N(C)C(=O)[C@H](Cc3ccc(OCC(=O)O)cc3)NC(=O)[C@H](Cc3ccc(-c4ccccc4)cc3)NC(=O)[C@H](Cc3ccc(C(=O)O)cc3)NC2=O)c1 [Example 1241] |
| 19.8 | CC(C)C[C@@H]1NC(=O)[C@H](Cc2c[nH]c3ccccc23)NC(=O)[C@H](CC(=O)O)NC(=O)[C@H](Cc2ccc(C(=O)O)cc2)NC(=O)[C@H](Cc2ccc(OCC(=O)O)cc2)NC(=O)CSC[C@@H](C(=O)N[C@@H](CCCN)C(=O)NCCOCCOCC(=O)NCCCCCCCCCCC(=O)O)NC(=O)[C@@H](CO)NC(=O)[C@H](C(C)C)NC(=O)[C@H](CC2CCCCC2)NC(=O)[C@H](CCN)NC(=O)[C@@H](CC(C)C)NC(=O)[C@H](C)N(C)C(=O)[C@H](C(C)C)NC(=O)[C@H](Cc2ccc(-c3ccccc3)cc2)NC1=O [Example 1242] ({CH2CO}-Y(Carboxymethyl)[Phe(4-COOH)]DWL[Bip]V[NMeA][dL][Dab][Cha]V[dS]C[Orn][AEEA][Aun]-OH; thioether N-14) |
| 28 | CC(C)C[C@@H]1NC(=O)[C@H](Cc2c[nH]c3ccccc23)NC(=O)[C@H](CC(=O)O)NC(=O)[C@H](Cc2ccc(C(=O)O)cc2)NC(=O)[C@H](Cc2ccc(OCC(=O)O)cc2)NC(=O)CSC[C@@H](C(=O)N[C@@H](CCCN)C(=O)NCc2ccc(CC(=O)NCCCCCCCCCCC(=O)O)cc2)NC(=O)[C@H](CO)NC(=O)[C@H](C(C)C)NC(=O)[C@H](CC2CCCCC2)NC(=O)[C@H](CCN)NC(=O)[C@@H](CC(C)C)NC(=O)[C@H](C)N(C)C(=O)[C@H](C(C)C)NC(=O)[C@H](Cc2ccc(-c3ccccc3)cc2)NC1=O [Example 1243] ({CH2CO}-Y(Carboxymethyl)[Phe(4-COOH)]DWL[Bip]V[NMeA][dL][Dab][Cha]VSC[Orn][X6][Aun]-OH; thioether N-14) |
| 18.2 | CC(C)C[C@@H]1NC(=O)[C@H](Cc2c[nH]c3ccccc23)NC(=O)[C@H](CC(=O)O)NC(=O)[C@H](Cc2ccc(C(=O)O)cc2)NC(=O)[C@H](Cc2ccc(OCC(=O)O)cc2)NC(=O)CSC[C@@H](C(=O)N[C@@H](CCCCN)C(=O)NCc2ccc(CC(=O)NCCCCCCCCCCC(=O)O)cc2)NC(=O)[C@H](CO)NC(=O)[C@H](C(C)C)NC(=O)[C@H](CC2CCCCC2)NC(=O)[C@H](CCN)NC(=O)[C@@H](CC(C)C)NC(=O)[C@H](C)N(C)C(=O)[C@H](C(C)C)NC(=O)[C@H](Cc2ccc(-c3ccccc3)cc2)NC1=O [Example 1245] ({CH2CO}-Y(Carboxymethyl)[Phe(4-COOH)]DWL[Bip]V[NMeA][dL][Dab][Cha]VSCK[X6][Aun]-OH; thioether N-14) |
| 31.9 | CC(C)C[C@@H]1NC(=O)[C@H](Cc2c[nH]c3ccccc23)NC(=O)[C@H](CC(=O)O)NC(=O)[C@H](Cc2ccc(C(=O)O)cc2)NC(=O)[C@H](Cc2ccc(OCC(=O)O)cc2)NC(=O)CSC[C@@H](C(=O)N[C@@H](CCCCN)C(=O)NCCOCCOCC(=O)NCCCCCCCCCCC(=O)O)NC(=O)[C@@H](CO)NC(=O)[C@H](C(C)C)NC(=O)[C@H](CC2CCCCC2)NC(=O)[C@H](CCN)NC(=O)[C@@H](CC(C)C)NC(=O)[C@H](C)N(C)C(=O)[C@H](C(C)C)NC(=O)[C@H](Cc2ccc(-c3ccccc3)cc2)NC1=O [Example 1246] ({CH2CO}-Y(Carboxymethyl)[Phe(4-COOH)]DWL[Bip]V[NMeA][dL][Dab][Cha]V[dS]CK[AEEA][Aun]-OH; thioether N-14) |
| 4.1 | CC(C)C[C@@H]1NC(=O)[C@H](Cc2c[nH]c3ccccc23)NC(=O)[C@H](CC(=O)O)NC(=O)[C@H](Cc2ccc(OCC(=O)O)cc2)NC(=O)[C@H](Cc2ccc(OCC(=O)O)cc2)NC(=O)CSC[C@@H](C(=O)NC2(C(=O)NCCOCCOCC(=O)NCCCCCCCCCCC(=O)O)CC2)NC(=O)[C@H](CCCNC(=N)N)NC(=O)[C@H](C(C)C)NC(=O)[C@H](CC2CCCCC2)NC(=O)[C@H](CCN)NC(=O)[C@@H](CC(C)C)NC(=O)[C@H](C)N(C)C(=O)[C@H](C(C)C)NC(=O)[C@H](Cc2ccc(-c3ccccc3)cc2)NC1=O [Example 1247] ({CH2CO}-Y(Carboxymethyl)Y(Carboxymethyl)DWL[Bip]V[NMeA][dL][Dab][Cha]VRC[Ac3c][AEEA][Aun]-OH; thioether N-14) |
